Measured values published in article PMC3671792 (Biochemical Journal, 2013).

What was measured:
MmPKAc = biological target: T1, MmPKAc (Mus musculus, UniProt P05132); settings: 25 uM ATP, 10 mM MgCl2, pH 7.5, 30 °C; labelled compound; GST-AMA1 phosphorylated, GST-Rh2b not
T1 construct: gene Prkaca

ZmCK2α = biological target: T2, ZmCK2α (Zea mays, UniProt P28523); settings: 25 uM ATP, 10 mM MgCl2, pH 7.5, 30 °C; labelled compound; GST-Rh2b phosphorylated, GST-AMA1 not
T2 construct: gene ACK2

[1] = biological target: T3, PfCK2 α (CK2–HA, immunoprecipitated) (Plasmodium falciparum, UniProt Q8IIR9); test: phosphorylation of GST-Rh2b CPD by immunoprecipitated CK2-HA, phospho-specific Western blot; format: biochemical; settings: 25 uM ATP, 10 mM MgCl2, pH 7.5, 30 °C; protein substrate GST-Rh2b CPD; kinase on beads
T3 construct: gene PF3D7_1108400; full coding region with C-terminal 3xHA tag, overexpressed episomally (crt promoter) in 3D7 parasites, immunoprecipitated on anti-HA/Protein G beads, ~42 kDa band; endogenous beta1/beta2 subunits could co-precipitate
T3 sequence (Q8IIR9 entry or part of it): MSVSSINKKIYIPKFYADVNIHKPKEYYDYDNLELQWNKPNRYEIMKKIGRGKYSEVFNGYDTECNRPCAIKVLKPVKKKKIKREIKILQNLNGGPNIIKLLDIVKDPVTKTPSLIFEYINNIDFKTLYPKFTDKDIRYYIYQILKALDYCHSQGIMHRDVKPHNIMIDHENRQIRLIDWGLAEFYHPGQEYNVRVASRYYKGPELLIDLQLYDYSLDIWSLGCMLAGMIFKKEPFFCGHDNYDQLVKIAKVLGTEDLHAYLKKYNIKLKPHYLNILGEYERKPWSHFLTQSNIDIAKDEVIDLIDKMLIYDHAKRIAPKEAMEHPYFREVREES

T2 sequence (P28523 whole entry): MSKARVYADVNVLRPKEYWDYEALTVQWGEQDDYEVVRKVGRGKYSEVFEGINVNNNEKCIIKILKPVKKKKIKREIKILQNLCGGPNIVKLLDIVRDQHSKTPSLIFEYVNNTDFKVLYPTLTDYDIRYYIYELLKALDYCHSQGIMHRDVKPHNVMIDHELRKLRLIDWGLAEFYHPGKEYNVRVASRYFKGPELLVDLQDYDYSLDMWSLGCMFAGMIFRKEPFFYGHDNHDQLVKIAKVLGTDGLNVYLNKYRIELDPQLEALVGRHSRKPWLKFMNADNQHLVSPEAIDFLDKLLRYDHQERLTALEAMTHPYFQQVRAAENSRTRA

Row | Compound | in vitro kinase assay with GST-AMA1 CPD, [γ-32P]ATP (MmPKAc) | in vitro kinase assay with GST-Rh2b CPD, [γ-32P]ATP (ZmCK2α) | inhibition (qualitative) [1]
1 | Nc1ncnc2c1ncn2[C@@H]1O[C@H](COP(=O)(O)OP(=O)(O)OP(=O)(O)O)[C@@H](O)[C@H]1O [ATP] | Although MmPKAc phosphorylated AMA1–GST, it showed no reactivity against GST–Rh2b | the enzyme was able to phosphorylate GST–Rh2b | 
2 | O=C(O)/C=C/c1cc(Br)c(Br)c(Br)c1Br [TBCA] |  |  | sensitive to heparin treatment (Figure 4E) and to increasing amounts of TBCA (Figure 4F)
